# According to PubChem BioAssay (NCI):
# “And” between values parts separate entries of the source, which are not always exact repeats. Equal values may be shown once.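 Compound exposure: 48 hours, 5 concentrations, 96-well plates. Abbreviation: GI50, concentration required for 50% inhibition of growth. Definition used: TGI = concentration required for complete inhibition of growth.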
# What was measured:
# Experiment in all cases: growth of human tumour cells (NCI), 48 h
# ACHN renal = tested on: ACHN renal
# HCC-2998 colon = tested on: HCC-2998 colon
# LOX IMVI melanoma = tested on: LOX IMVI melanoma
# RPMI-8226 leukemia = tested on: RPMI-8226 leukemia
# RXF 393 renal = tested on: RXF 393 renal
# SF-539 CNS = tested on: SF-539 CNS
# SNB-75 CNS = tested on: SNB-75 CNS
# UACC-62 melanoma = tested on: UACC-62 melanoma
SMILES,GI50 (ACHN renal),TGI (ACHN renal),GI50 (HCC-2998 colon),TGI (HCC-2998 colon),GI50 (LOX IMVI melanoma),TGI (LOX IMVI melanoma),GI50 (RPMI-8226 leukemia),TGI (RPMI-8226 leukemia),GI50 (RXF 393 renal),TGI (RXF 393 renal),GI50 (SF-539 CNS),TGI (SF-539 CNS),GI50 (SNB-75 CNS),TGI (SNB-75 CNS),GI50 (UACC-62 melanoma),TGI (UACC-62 melanoma)
CCN(Cc1cc(F)ccc1F)c1ccc(CO)c(Cl)c1,14.3 µM,29.6 µM,6.37 µM,21.7 µM,14.6 µM,29.2 µM,2.24 µM,30.3 µM,4.16 µM,17.3 µM,15.2 µM,30.4 µM,10.4 µM,35.6 µM,0.0877 µM,0.602 µM
Oc1c(Cl)cc(Cl)c2ccc(Cn3cc(-c4cc(C(F)(F)F)cc(C(F)(F)F)c4)nn3)nc12,1.25 µM,2.5 µM,7.72 µM,21.4 µM,0.317 µM,1.28 µM,1.32 µM,4.74 µM,0.555 µM,1.97 µM,1.53 µM,2.94 µM,1.47 µM,8.09 µM,2.15 µM,6.65 µM
CCC(C)Oc1nc2c(c(=O)n(C)c(=O)n2C)n1C (stereo unspecified),> 100 µM,> 100 µM,–,–,> 100 µM,> 100 µM,–,–,> 100 µM,> 100 µM,> 100 µM,> 100 µM,> 100 µM,> 100 µM,> 100 µM,> 100 µM
Cc1ncc(C(=O)Nc2ccc(CN3CCN(C)CC3)c(C(F)(F)F)c2)cc1C#Cc1ccc(N)nc1,0.117 µM,0.995 µM,0.998 µM,4.66 µM,0.131 µM,0.496 µM,0.237 µM,1.58 µM,0.197 µM,0.892 µM,0.367 µM,1.1 µM,0.434 µM,1.1 µM,0.153 µM,0.854 µM
NC(=O)[C@@H](CC1CC1)[C@@H](CCC(F)(F)F)C(=O)N[C@H]1N=C(c2ccccc2)c2cccc(F)c2NC1=O,66 µM,> 100 µM,> 100 µM,> 100 µM,48 µM,> 100 µM,27.8 µM,> 100 µM,68 µM,> 100 µM,17.4 µM,38.9 µM,16.3 µM,> 100 µM,> 100 µM,> 100 µM
O=c1c2cc(-c3ccccc3)sc2ncn1Cc1ccc(Cl)c(Cl)c1,22.7 µM,75.6 µM,–,–,51.9 µM,> 100 µM,36.8 µM,> 100 µM,17.1 µM,48.2 µM,14 µM,43 µM,18.1 µM,48.7 µM,13 µM,28 µM
CCCCCCCCOC(=O)c1c(C)[nH]c(/C=C2\N=C(c3ccc[nH]3)C=C2OC)c1C,0.0322 µM,1.77 µM,0.0398 µM,3.46 µM,< 0.0134 µM,< 0.02 µM,0.12 µM,2.11 µM,0.0535 µM,1.73 µM,0.0529 µM,2.62 µM,0.0451 µM,0.432 µM,0.0295 µM,0.0904 µM
O=C(/C=C/c1ccc(O)c(O)c1)NCc1c[nH]c2ccccc12,45.8 µM,> 100 µM,35.7 µM,76.1 µM,60 µM,> 100 µM,57.9 µM,> 100 µM,> 100 µM,> 100 µM,38.9 µM,> 100 µM,82.4 µM,> 100 µM,80.6 µM,> 100 µM
O=[N+]([O-])c1cccc(-c2nc(-c3ccccc3)c(-c3ccccc3)[nH]2)c1,–,–,–,> 100 µM,–,> 100 µM,–,> 100 µM,–,> 100 µM,–,> 100 µM,–,–,–,> 100 µM
NS(=O)(=O)c1ccc(N2N=C3c4ccccc4CC3C2c2cccs2)cc1 (stereo unspecified),19.8 µM,36.3 µM,14.8 µM,39.6 µM,19.1 µM,42.6 µM,32.3 µM,> 100 µM,20.6 µM,62.6 µM,17.4 µM,48.1 µM,31.1 µM,> 100 µM,21.8 µM,44.3 µM
CN(C)CCNC(=O)c1ccc(-c2nc3ccc4[nH]ncc4c3c3c2C2CCC3C2)cc1 (stereo unspecified),0.564 µM,6.91 µM,1.74 µM,5.64 µM,1.19 µM,2.79 µM,1.35 µM,4.6 µM,0.267 µM,1.18 µM,0.702 µM,2.39 µM,0.341 µM,1.14 µM,0.898 µM,3.72 µM
CCCCCN(CCCCC)CC(O)c1cc(Cl)ccc1OC (stereo unspecified),10.5 µM,24.9 µM,5.72 µM,17.8 µM,5.23 µM,18.4 µM,4.81 µM,22.7 µM,2.58 µM,7.87 µM,10.8 µM,24.3 µM,0.197 µM,5.83 µM,11.1 µM,25.4 µM
O=S1(=O)N(Cc2ccccc2)[C@@H](Cc2ccccc2)[C@H](O)[C@H](O)[C@H](Cc2ccccc2)N1Cc1ccccc1,6.01 µM,> 20 µM,3.41 µM,6.2 µM,3.28 µM,7.09 µM,4.49 µM,> 20 µM,2.6 µM,5.24 µM,3.37 µM,6.76 µM,2.31 µM,7.28 µM,2.86 µM,6.4 µM
Cc1nc2ccc(Br)cc2c(=O)n1-c1ccc(NC2OCC(O)C(O)C2O)cc1 (stereo unspecified),35.6 µM and > 100 µM,> 100 µM,19.1 µM and > 100 µM,40.4 µM and > 100 µM,15.3 µM and > 100 µM,33.8 µM and > 100 µM,–,–,32.1 µM and > 100 µM,51.4 µM and > 100 µM,18.3 µM and > 100 µM,37.2 µM and > 100 µM,38.7 µM and 92.3 µM,> 100 µM,30.7 µM and > 100 µM,> 100 µM
Cn1c(=O)c2[nH]c(SCCN3CCOCC3)nc2n(C)c1=S,–,> 100 µM,–,–,–,> 100 µM,–,> 100 µM,–,> 100 µM,–,> 100 µM,–,> 100 µM,–,> 100 µM
COc1ccc2c(c1OC)-c1c(c3ccc([N+](=O)[O-])cc3c(=O)n1CCCBr)C2=O,–,–,–,–,12.7 µM,45.5 µM,25 µM,> 100 µM,–,–,–,–,26.8 µM,60.6 µM,18.1 µM,76.1 µM
